From ChEMBL document CHEMBL1155403, “Simple and conveniently accessible bi-fluorescence-labeled substrates for amylases” (Bioorg Med Chem Lett, 2010)
The source made the active and inactive calls. The calls are words filed in the database; no cut-off is given here.

Target: T1, Alpha-amylase 1A (Homo sapiens) (UniProt P0DUB6)
T1 sequence (whole entry): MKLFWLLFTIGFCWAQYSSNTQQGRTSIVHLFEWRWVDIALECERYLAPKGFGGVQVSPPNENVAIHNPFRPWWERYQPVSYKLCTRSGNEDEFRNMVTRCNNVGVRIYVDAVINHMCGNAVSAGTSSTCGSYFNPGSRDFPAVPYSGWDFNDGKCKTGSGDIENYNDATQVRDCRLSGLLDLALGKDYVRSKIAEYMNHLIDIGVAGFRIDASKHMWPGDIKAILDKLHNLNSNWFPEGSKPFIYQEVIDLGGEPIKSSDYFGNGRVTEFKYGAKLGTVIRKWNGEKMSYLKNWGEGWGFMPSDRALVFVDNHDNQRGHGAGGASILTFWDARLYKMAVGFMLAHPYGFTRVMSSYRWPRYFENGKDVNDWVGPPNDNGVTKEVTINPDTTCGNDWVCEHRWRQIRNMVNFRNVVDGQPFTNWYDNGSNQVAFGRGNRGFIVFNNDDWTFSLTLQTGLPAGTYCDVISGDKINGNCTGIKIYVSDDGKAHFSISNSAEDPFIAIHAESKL
Test: Activity of human salivary alpha amylase by FRET assay

Activity | Compound
Active | CN(C)c1cccc2c(S(=O)(=O)NCCSCCCCCS[C@@H]3O[C@H](CO)[C@@H](O[C@H]4O[C@H](CO)[C@@H](O[C@H]5O[C@H](CO)[C@@H](O[C@H]6O[C@H](CO)[C@@H](O[C@H]7O[C@H](CO)[C@@H](O[C@H]8O[C@H](COCc9ccc%10ccccc%10c9)[C@@H](O)[C@H](O)[C@H]8O)[C@H](O)[C@H]7O)[C@H](O)[C@H]6O)[C@H](O)[C@H]5O)[C@H](O)[C@H]4O)[C@H](O)[C@H]3O)cccc12
inactive | CN(C)c1cccc2c(S(=O)(=O)NCCSCCCCCS[C@@H]3O[C@H](CO)[C@@H](O[C@H]4O[C@H](COCc5ccc6ccccc6c5)[C@@H](O)[C@H](O)[C@H]4O)[C@H](O)[C@H]3O)cccc12
